Experimental data from patent US20130131161A1, “METHODS AND COMPOSITIONS FOR CARDIOVASCULAR DISEASES AND CONDITIONS” (priority 2009, published 2013).

Test system: Human umbilical vein endothelial cells (HUVECs)
Experiment: Comparison of LA-419 and ISDN: NO and ONOO− release from HUVECs measured with tandem electrochemical nanosensors (Example 1)
Type: cell-based
Conditions: for NO release (mean ± S.D.) / ONOO− release (mean ± S.D.): 500 nM, 12 hours, then CaI (1.0 μM)
Description: Human umbilical vein endothelial cells (HUVECs) were isolated into primary cultures and purchased as proliferating cells from Clonetics (San Diego, Calif.). All cell culture donors were healthy, with no pregnancy or prenatal complications. The cultured cells were incubated in 95% air/5% CO2 at 37° C. and passage by an enzymatic (trypsin) procedure. The confluent cells (4 to 5×10^5 cells per 35-mm dish) were placed with minimum essential medium containing 3 mM L-arginine and 0.1 mM BH4 [(6R)-5,6,7,8-tetrahydrobiopterin]. Before the experiments, the cells (from second or third passage) were rinsed twice with Tyrode-HEPES buffer with 1.8 mM CaCl2. ISDN was obtained from Sigma-Aldrich.
Concurrent measurements of NO and ONOO^− were carried out with tandem electrochemical nanosensors combined into one working unit with a total diameter of 200-500 nm (FIG. 1). Their design was based on previously developed and well-characterized chemically modified carbon-fiber technology (Malinski and Taha, 1992; Lvovich and Scheeline, 1997). Each of the nanosensors was made by depositing a sensing material on the tip of a carbon fiber (length 4-5 μm, diameter 0.2-0.5 μm). The fibers were sealed with nonconductive epoxy and electrically connected to copper wires with conductive silver epoxy. A conductive film of polymeric nickel (II) tetrakis(3-methoxy-4-hydroxyphenyl)porphyrin for the NO-sensor and polymeric film of Mn (III) [2.2]paracyclophanylporphyrin was used for the ONOO^−-sensor.
A module of NO/ONOO^− nanosensors (diameter 1-2 μm) with a platinum wire (0.1 mm) counter electrode and saturated calomel reference electrode (SCE) were applied. Differential pulse voltammetry (DPV) and amperometry were performed with a computer-based Gamry VFP600 multichannel potentiostat. DPV was used to measure the basal NO and ONOO^− concentrations, and amperometry was used to measure changes in NO and ONOO^− concentrations from its basal level with time. The DPV current at the peak potential characteristic for NO oxidation (0.65 V) and ONOO^− reduction (−0.45 V) was directly proportional to the local concentrations of these compounds in the immediate vicinity of the sensor. Linear calibration curves (current vs. concentration) were constructed for each sensor from 10 nM to 3 μM before and after measurements with aliquots of NO and ONOO^− standard solutions, respectively. The detection limit of the sensors was 1.0 nM.
The quantification of each analyte (concentration in nM) was performed using a maximum current from amperograms and standard calibration curves. A reproducibility of measurements with nanosensors is relatively high (between 5-12%). […] The sensors were slowly raised 5±2 μm from the surface of a single endothelial cell. The eNOS agonist, calcium ionophore A23187 (CaI) as well as the different drugs were then added to the surrounding media at the cell surface with a nanoinjector that was also positioned by a computer controlled-micromanipulator.
The HUVEC preparation is stable over the course of these experiments with the cells remaining viable in culture for >24 hours. Under non-stimulating conditions, basal levels of NO release are very low (<30 nM). Measurement of NO release as a function of treatment was conducted in individual endothelial cells. Multiple measurements of NO release can be conducted on single cells following a brief refractory period. For robust statistical analysis, separate cells were used for each concentration and type of drug used in these analyses.

[1] = HUVECs from Non-Hispanic Whites

CC(=O)SC1COC2C(O[N+](=O)[O-])COC12 (stereo not drawn) [LA-419, S-(6-Nitro-oxi-hexahydro-furo[3,2-b]furan-3-1-il)thioacetate]
NO release (mean ± S.D.) (HUVECs from African Americans): 253 ± 15 nM | ONOO− release (mean ± S.D.) (HUVECs from African Americans): 532 ± 25 nM | NO release (mean ± S.D.) [1]: 409 ± 30 nM | ONOO− release (mean ± S.D.) [1]: 307 ± 11 nM | effect on NO release (HUVECs from both non-Hispanic whites and African Americans, identical conditions): small increase | NO/ONOO− ratio versus control samples (HUVECs, 12 h treatment): not significantly different from control samples
